Measured values taken from patent publication US7157582B2, “Selective iGluR5 receptor antagonists” (Eli Lilly and Company, priority 1999, dated 2007).

How the values were obtained:
[1] = tested on: dural protein extravasation; assay: Animal model of dural protein extravasation (rat); type: in vivo; conditions: for Inhibition of Dural Protein Extravasation ID50: rat, i.v.
Method: (§1) The following animal model was employed to determine the ability of each of the panel of compounds to inhibit protein extravasation, an exemplary functional assay of the neuronal mechanism of migraine.
Harlan Sprague-Dawley rats (225–325 g) or guinea pigs from Charles River Laboratories (225–325 g) were anesthetized with sodium pentobarbital intraperitoneally (65 mg/kg or 45 mg/kg respectively) and placed in a stereotaxic frame (David Kopf Instruments) with the incisor bar set at −3.5 mm for rats or −4.0 mm for guinea pigs. Following a midline sagital scalp incision, two pairs of bilateral holes were drilled through the skull (6 mm posterially, 2.0 and 4.0 mm laterally in rats; 4 mm posteriorly and 3.2 and 5.2 mm laterally in guinea pigs, all coordinates referenced to bregma). Pairs of stainless steel stimulating electrodes, insulated except at the tips (Rhodes Medical Systems, Inc.), were lowered through the holes in both hemispheres to a depth of 9 mm (rats) or 10.5 mm (guinea pigs) from dura.
The femoral vein was exposed and a dose of the test compound was injected intravenously (i.v.) at a dosing volume of 1 ml/Kg or, in the alternative, test compound was administered orally (p.o) via gavage at a volume of 2.0 ml/Kg. Approximately 7 minutes post i.v. injection, a 50 mg/Kg dose of Evans Blue, a fluorescent dye, was also injected intravenously. The Evans Blue complexed with proteins in the blood and functioned as a marker for protein extravasation. Exactly 10 minutes post-injection of the test compound, the left trigeminal ganglion was stimulated for 3 minutes at a current intensity of 1.0 mA (5 Hz, 4 msec duration) with a Model 273 potentiostat/galvanostat (EG&G Princeton Applied Research).
Fifteen minutes following stimulation, the animals were killed and exsanguinated with 20 mL of saline. The top of the skull was removed to facilitate the collection of the dural membranes. […]
(§2) A fluorescence microscope (Zeiss) equipped with a grating monchromator and a spectrophotometer was used to quantify the amount of Evans Blue dye in each sample. An excitation wavelength of approximately 535 nm was utilized and the emission intensity at 600 nm was determined. […] This facilitated the computer-controlled movement of the stage with fluorescence measurements at 25 points ([…]) on each dural sample. The mean and standard deviation of the measurements were determined by the computer.
(§3) The extravasation induced by the electrical stimulation of the trigeminal ganglion was an ipsilateral effect (i.e. occurs only on the side of the dura in which the trigeminal ganglion was stimulated). […] The ratio of the amount of extravasation in the dura from the stimulated side, over the amount of extravasation in the unstimulated side, was calculated. […]

[2] = tested on: dural protein extravasation; assay: Animal model of dural protein extravasation (guinea pig); type: in vivo; conditions: Gpig (guinea pig), i.v.
Method: as §1
Harlan Sprague-Dawley rats (225–325 g) or guinea pigs from Charles River Laboratories (225–325 g) were anesthetized with sodium pentobarbital intraperitoneally (65 mg/kg or 45 mg/kg respectively) and placed in a stereotaxic frame (David Kopf Instruments) with the incisor bar set at −3.5 mm for rats or −4.0 mm for guinea pigs. […]
as §2, §3

SMILES | Inhibition of Dural Protein Extravasation ID50 [1] | Inhibition of Dural Protein Extravasation ID50 [2] | Inhibition of Dural Protein Extravasation ID100 ([1]; p.o., species not given) [µg/kg]
O=C(O)c1ccc(C[C@H]2CC[C@H]3CN[C@H](C(=O)O)C[C@H]3C2)cc1 [Compound I, 3S,4aR,6S,8aR-6-(((4-carboxy)phenyl)methyl)-1,2,3,4,4a,5,6,7,8,8a-decahydroisoquinoline-3-carboxylic acid] | 6.5 (rat), ng/Kg | 4.0 (Gpig) ng/Kg | 
CCOC(=O)[C@@H]1C[C@H]2C[C@@H](CN3CC(F)(F)C[C@H]3C(=O)OCC)CC[C@H]2CN1 [Compound IV(b), 3S,4aR,6S,8aR Ethyl 6-(((2S)-2-(Ethoxycarbonyl)-4,4-difluoropyrrolidinyl)methyl)-1,2,3,4,4a,5,6,7,8,8a-decahydroisoquinoline-3-carboxylate] |  |  | 1e-05
O=C(O)[C@@H]1C[C@H]2C[C@@H](COCc3nnn[nH]3)CC[C@H]2CN1 [Compound II, 3S,4aR,6S,8aR-6-((((1H-Tetrazole-5-yl)methyl)oxy)methyl)-1,2,3,4,4a,5,6,7,8,8a-decahydroisoquinoline-3-carboxylic acid] | 15 (rat) ng/Kg |  | 
O=C(O)[C@@H]1C[C@H]2C[C@@H](CCSc3nnn[nH]3)CC[C@H]2CN1 [Compound III] | .0053 (rat) ng/Kg |  | 
